The values below come from BindingDB's records for doi:10.1016/j.bmcl.2004.04.020 (Texas Tech University Health Sciences Center, 2004).

Some results are limits rather than exact numbers.

Experiment [1] is described as follows: Inhibition of [3H]choline brain uptake through choline transporter was determined in situ brain perfusion studies in Male Fischer-344 rats.
Experiment in experiment [2]: as above
The source holds these as a separate data set.

Regarding `CC(=O)C1=CCC(CCc2ccccc2)CC1` (configuration not stated) [1-(4-Phenethyl-cyclohex-1-enyl)-ethanone], in experiment [1], the Ki (as a rule, the dissociation constant of the complex between target and ligand, obtained from inhibition or displacement) was 495 µM. Same read-out and setting: to `CCCC[N+](C)(C)CCO` [Butyl-(2-hydroxy-ethyl)-dimethyl-ammonium] belongs 40 µM.

Regarding `CCC[N+](C)(C)CCO` [(2-Hydroxy-ethyl)-dimethyl-propyl-ammonium], the affinity in experiment [1] corresponds to a Ki of 190 µM.

`CN(C)C1CCCCC1O` (configuration not stated) [2-Dimethylamino-cyclohexanol] gave an inhibition constant (Ki) in experiment [1] greater than 10000 µM. Still for that read-out and setting: to `C[N+](C)(C)CCCO` belongs 162 µM; to `C[N+](C)(CCO)c1ccccc1` [(2-Hydroxy-ethyl)-dimethyl-phenyl-ammonium], greater than 10000 µM; to `CC[N+](CC)(CC)CCO`, 1900 µM.

In experiment [1], `OCCCN1CCN(Cc2cccnc2)CC1` [3-(4-Pyridin-3-ylmethyl-piperazin-1-yl)-propan-1-ol] showed a Ki greater than 10000 µM. Consider `CC[N+](C)(C)CCO` [Ethyl-(2-hydroxy-ethyl)-dimethyl-ammonium], for which, in experiment [1], affinity was put at a Ki of 94 µM. Still for that read-out and setting: to `CSCCO` [2-Methylsulfanyl-ethanol] belongs greater than 10000 µM; to `CCCCCCCCN1CCCCC1` [1-Octyl-piperidine], 32 µM; to `C[N+](C)(CCO)c1ccc(F)cc1` [(4-Fluoro-phenyl)-(2-hydroxy-ethyl)-dimethyl-ammonium], 737 µM.

For `C[N+](C)(C)CCCCO`, in experiment [1], the Ki is greater than 10000 µM. On the same count and under the same terms, to `CC[N+](C)(C)C` [Ethyl-trimethyl-ammonium] belongs 4700 µM. Compound `CCCCCCCC[N+](C)(C)CCO` [(2-Hydroxy-ethyl)-dimethyl-octyl-ammonium] returned a Ki in experiment [2] of 2.1 µM. `CC(O)C[N+](C)(C)C` (stereo not drawn) [beta-methylcholine] showed a Ki in experiment [1] of 200 µM.

Compound `CCN1CC=C(C(C)=O)CC1` [1-(1-Ethyl-1,2,3,6-tetrahydro-pyridin-4-yl)-ethanone] registered a Ki in experiment [1] greater than 10000 µM.
